The text below walks through data of patent US20250064717A1, “MANUFACTURE OF COSMETIC CAROTENOID COMPOSITIONS” (Unibar Corporation, priority 2022, published 2025).

≈ marks a conversion by molar mass, not a printed value.

In assay [1] the test system is Candida albicans (ATCC-10231). Description: Antifungal culture microdilution MIC assay. It counts as cell-based. Particulars: ATCC10231, 50% reduction of fungal growth, 48-72 hours. The source says:
(§1) The anti-fungal activity of CAP-50CR and CAP-1.5SE against Malassezia furfur and Candida albicans are compared with the anti-fungal drug ketoconazole by the minimum inhibitory concentration (“MIC”) method.
(§2) The inhibitory effect assay of CAP-50CR and CAP-1.5SE against Malassezia furfur and Candida albicans may be performed as per a culture microdilution reference method. Ketoconazole, an anti-fungal drug, may be used as the standard. Freeze-dried Candida albicans (ATCC-10231) and Malassezia furfur (ATCC-14521) strains may be used as well. A loopful culture of Malassezia furfur and Candida albicans may be streaked on SDA (Sabouraud Dextrose Agar), and incubated at 35±2° C. and 25±2° C. for 48-72 hours, respectively. Finally, cells may be suspended in a RPMI 1640 medium to obtain a final concentration of 1×10^6 CFU/mL. For the evaluation of inhibitory activity, the effect of CAP-50CR and CAP-1.5SE may be examined against strains of Malassezia furfur and Candida albicans cultured in 96-well microplates at different concentrations of 35±2° C. and 25±2° C., respectively, for 48-72 hours.
(§3) Sterility and growth control may also be used. Yeast growth may be determined in an Enzyme-Linked ImmunoSorbent Assay Microplate Reader at 530 nm. […]

Assay [2] deals with Malassezia furfur (ATCC-14521). Description: Antifungal culture microdilution MIC assay. It counts as cell-based. Particulars: ATCC14521, 50% reduction of fungal growth, 48-72 hours.
Excerpt: as §1, §2, §3
A general note: Dilution methods test growth across graded concentrations, often in twofold steps.

The term MIC50 denotes an inhibitory concentration at the 50% level, which refers to growth in some studies and to a panel of isolates in others. The low end stands for greater potency, the high end for weaker potency. Regarding `CC(=O)N1CCN(c2ccc(OCC3COC(Cn4ccnc4)(c4ccc(Cl)cc4Cl)O3)cc2)CC1` (centres unmarked) [Ketoconazole], the MIC50 in assay [1] and in assay [2] was 0.48 µg/mL (≈ 0.903 µM) throughout.
